Test results published in PMC7852560 (Neuropsychopharmacology, 2020).
Values joined by “and” are separate entries in the source; they are usually repeats but may differ in a detail not shown here. Identical values can stand only once. Like-named read-outs stand apart in the source and are kept apart here.

Experiments:
in vitro [1] = assay type: in vitro ADME, human; settings: pH 7.4
Description: (§1) Microsomal stability assays were conducted by Cyprotex Ltd (Macclesfield, UK).
(§2) The study of drug stability in the presence of liver microsomes is accepted as a valuable model for permitting rapid prediction of in vivo drug stability (see Kerns & Di, 2008). Microsomal stability studies were performed by Cyprotex Ltd (Macclesfield, UK). […] Microsomes (final protein concentration 0.5 mg/mL), 0.1 M phosphate buffer pH 7.4, and test compound (final concentration 3 μM; diluted from 10 mM stock solution to give a final DMSO concentration of 0.25%) were incubated at 37°C prior to the addition of NADPH (final concentration 1 mM) to initiate the reaction with a final incubation volume of 25 µL. A control incubation was included for each compound tested, where 0.1 M phosphate buffer pH 7.4 was added instead of NADPH. The control compounds testosterone and 7-hydroxycoumarin were included in each experiment and all incubations were performed singularly for each compound. […] Following protein precipitation, the sample supernatants were combined in cassettes of up to 4 compounds and analyzed using standard LC-MS/MS conditions. From a plot of the natural logarithm of the peak area ratio (i.e., the ratio of compound peak area: internal standard peak area) against time, the gradient of the line was determined. Subsequently, half-life and intrinsic clearance were calculated using the equations below: […]

5HT1B = biological target: T1, 5HT1B (Rattus norvegicus, UniProt P28564); test: SafetyScreen44 panel: 5HT1B; assay type: binding; settings: 1 µM
T1 construct: Eurofins Cerep
Description: (§3) The screen assesses the selectivity of the compound on a diverse panel of targets that includes GPCRs, drug transporters, ion channels, nuclear receptors, kinases, and other non-kinase enzymes. The screen employs radioligand binding or enzyme assays for these 44 targets.
(§4) For receptor assays, binding was calculated as percent inhibition of the binding of a radioactively labeled ligand specific for each target. For enzyme assays, the inhibition effect was calculated as percent inhibition of control enzyme activity. Tests were performed in duplicate, and results are averages of those two tests. See https://www.eurofinsdiscoveryservices.com.

CB1R = CB1R (Homo sapiens, UniProt P21554); test: cell-based; parameters: beta-galactosidase enzyme fragment (EFC; ProLink by own knowledge); settings: in the presence of the EC80 of CP55,940 (10 nM)
Description: The PathHunter® β-Arrestin assay was conducted by Eurofins Pharma Discovery Services (further details can be found at https://www.eurofinsdiscoveryservices.com).
The PathHunter® β-Arrestin assay was conducted by Eurofins Pharma Discovery Services. The assay monitors the activation of a GPCR in a homogenous, non-imaging assay format using a technology developed by DiscoverX called Enzyme Fragment Complementation (EFC) with β-galactosidase (β-Gal) as the functional reporter. Vehicle concentration was 1% DMSO in these assays.

Male Sprague Dawley rats = settings: 10 mg/kg i.p.
Description: Male Sprague Dawley rats (PD>63) were trained on a CAR protocol and responding following drug exposure was determined. […] Animals were trained to learn a house light (CS) as predictive of an avoidable 0.6mA scrambled foot shock (US). Each session consisted of 50 trials and animals avoided >70% of trials on the final acquisition session were tested for CAR during vehicle baseline, drug exposure, and re-emergence. In addition to CAR testing, both temperature and catalepsy were recorded in these animals (measure of potential CB1R agonism). Temperature: recorded on first day of drug exposure, prior to injection and 60-90-min. following drug exposure.

Dopamine D2 = Dopamine D2 (Homo sapiens, UniProt P14416); test: SafetyScreen44 panel: Dopamine D2; assay type: binding; settings: 1 µM
Description: as §3, §4

DATKO mice = test: Open-field test in DATKO mice; settings: 10 mg/kg i.p., 30 min before test
5HT1A = biological target: T2, 5HT1A (Homo sapiens, UniProt P08908); test: SafetyScreen44 panel: 5HT1A; assay type: binding; settings: 1 µM
T2 construct: Eurofins Cerep
T2 sequence (P08908 1-422): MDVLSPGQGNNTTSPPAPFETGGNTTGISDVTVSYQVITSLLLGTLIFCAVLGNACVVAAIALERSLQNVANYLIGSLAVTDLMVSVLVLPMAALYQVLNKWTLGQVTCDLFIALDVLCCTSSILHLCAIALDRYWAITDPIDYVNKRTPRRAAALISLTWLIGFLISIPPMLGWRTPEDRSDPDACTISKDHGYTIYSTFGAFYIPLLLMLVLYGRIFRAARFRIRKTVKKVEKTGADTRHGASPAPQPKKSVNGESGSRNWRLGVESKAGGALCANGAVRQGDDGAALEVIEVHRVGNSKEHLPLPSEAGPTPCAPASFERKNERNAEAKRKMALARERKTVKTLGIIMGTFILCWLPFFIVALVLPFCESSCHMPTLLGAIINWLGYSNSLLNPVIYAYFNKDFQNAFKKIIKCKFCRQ
Description: as §3, §4

C57Bl/6J mice = assay type: in vivo; settings: 10 mg/kg i.p., 30 min before test, compared to vehicle
Description: (i.p.) before testing. The EPM was composed of 4 opaque-white arms (2 opposite arms closed, 2 opposite arms open), arranged in a plus shape, with an open center. The dimensions were as follows; maze elevation (38.7cm), open arm (L:30.5 cm, W:5 cm, H:0 cm), closed arm (L:30.5 cm, W:5 cm, H:15.2 cm) and center (5 cm x 5 cm). The experiment mouse was placed in the center of the maze and allowed to freely explore the maze for 8-min (50lux), while being tracked with an overhead camera. Open and closed arm times were recorded and collected by Biobserve Viewer3 software. The percentage of time spent in the open arms as compared to closed arms and center time was calculated and expressed as a percent of time spent in the open or closed arms of the maze.

5HT2B = biological target: T3, 5HT2B (Homo sapiens, UniProt P41595); test: SafetyScreen44 panel: 5HT2B; assay type: binding; settings: 1 µM
T3 construct: Eurofins Cerep
Description: See https://www.eurofinsdiscoveryservices.com.

in vitro [2] = assay type: in vitro ADME, rat; settings: pH 7.4
Description: as §1, §2

GluN1KD mice = test: Open-field test in GluN1KD mice; settings: ABM300 10 mg/kg, OLA 1 mg/kg i.p., 30 min before test
Dopamine D1 = Dopamine D1 (Homo sapiens, UniProt P21728); test: SafetyScreen44 panel: Dopamine D1; assay type: binding; settings: 1 µM
Description: as §3, §4

Chain of CB1R (P21554 whole entry, the tested form may be a part): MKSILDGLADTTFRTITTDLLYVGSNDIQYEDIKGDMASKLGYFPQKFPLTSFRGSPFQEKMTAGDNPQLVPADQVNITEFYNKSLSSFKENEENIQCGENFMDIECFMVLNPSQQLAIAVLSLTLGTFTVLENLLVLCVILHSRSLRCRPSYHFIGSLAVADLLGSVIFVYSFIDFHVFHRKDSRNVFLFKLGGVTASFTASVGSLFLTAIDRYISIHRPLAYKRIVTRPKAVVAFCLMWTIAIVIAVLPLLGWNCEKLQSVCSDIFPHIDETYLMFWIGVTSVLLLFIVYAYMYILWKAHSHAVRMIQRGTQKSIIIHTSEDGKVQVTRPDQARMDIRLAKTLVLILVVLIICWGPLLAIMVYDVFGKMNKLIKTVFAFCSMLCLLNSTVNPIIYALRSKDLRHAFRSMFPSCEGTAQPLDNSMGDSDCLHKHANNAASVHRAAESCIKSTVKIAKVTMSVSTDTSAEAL
T3 sequence (P41595 whole entry): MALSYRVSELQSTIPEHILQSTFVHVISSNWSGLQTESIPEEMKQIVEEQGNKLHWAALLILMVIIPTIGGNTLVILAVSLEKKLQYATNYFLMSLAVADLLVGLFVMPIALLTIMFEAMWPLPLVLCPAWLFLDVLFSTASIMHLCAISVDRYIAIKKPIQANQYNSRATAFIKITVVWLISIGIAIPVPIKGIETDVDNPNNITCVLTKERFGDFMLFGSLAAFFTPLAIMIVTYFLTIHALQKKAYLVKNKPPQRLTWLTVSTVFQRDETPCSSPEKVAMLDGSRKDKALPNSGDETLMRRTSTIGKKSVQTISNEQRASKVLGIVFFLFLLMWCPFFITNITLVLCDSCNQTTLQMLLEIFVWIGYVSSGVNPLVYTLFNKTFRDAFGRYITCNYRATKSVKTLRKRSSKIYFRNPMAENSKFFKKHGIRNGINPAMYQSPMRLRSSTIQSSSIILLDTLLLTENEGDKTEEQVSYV
T1 sequence (P28564 whole entry): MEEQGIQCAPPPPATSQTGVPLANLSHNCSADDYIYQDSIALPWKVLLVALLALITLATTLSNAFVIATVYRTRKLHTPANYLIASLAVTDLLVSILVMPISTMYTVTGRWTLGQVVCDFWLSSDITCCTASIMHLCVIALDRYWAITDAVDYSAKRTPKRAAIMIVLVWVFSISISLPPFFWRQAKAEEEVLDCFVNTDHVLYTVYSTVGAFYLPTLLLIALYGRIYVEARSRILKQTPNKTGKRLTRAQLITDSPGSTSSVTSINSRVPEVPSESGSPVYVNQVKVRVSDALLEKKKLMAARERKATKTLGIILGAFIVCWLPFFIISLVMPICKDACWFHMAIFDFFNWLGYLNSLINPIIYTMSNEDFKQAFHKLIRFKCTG
Chain of Dopamine D1 (P21728 whole entry): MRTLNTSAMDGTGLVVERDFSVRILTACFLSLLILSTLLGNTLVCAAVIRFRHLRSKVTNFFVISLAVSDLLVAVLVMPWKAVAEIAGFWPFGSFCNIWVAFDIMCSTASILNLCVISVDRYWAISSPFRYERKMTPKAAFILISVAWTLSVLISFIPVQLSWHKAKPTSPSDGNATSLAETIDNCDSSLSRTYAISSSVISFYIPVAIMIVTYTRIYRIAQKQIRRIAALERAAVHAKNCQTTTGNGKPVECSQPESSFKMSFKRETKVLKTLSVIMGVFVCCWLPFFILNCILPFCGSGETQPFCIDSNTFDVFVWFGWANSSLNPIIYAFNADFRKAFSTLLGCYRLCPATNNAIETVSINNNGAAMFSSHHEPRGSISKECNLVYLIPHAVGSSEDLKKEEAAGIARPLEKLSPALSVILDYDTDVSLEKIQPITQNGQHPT
Chain of Dopamine D2 (P14416 other isoform, or with tags, fused parts or gaps): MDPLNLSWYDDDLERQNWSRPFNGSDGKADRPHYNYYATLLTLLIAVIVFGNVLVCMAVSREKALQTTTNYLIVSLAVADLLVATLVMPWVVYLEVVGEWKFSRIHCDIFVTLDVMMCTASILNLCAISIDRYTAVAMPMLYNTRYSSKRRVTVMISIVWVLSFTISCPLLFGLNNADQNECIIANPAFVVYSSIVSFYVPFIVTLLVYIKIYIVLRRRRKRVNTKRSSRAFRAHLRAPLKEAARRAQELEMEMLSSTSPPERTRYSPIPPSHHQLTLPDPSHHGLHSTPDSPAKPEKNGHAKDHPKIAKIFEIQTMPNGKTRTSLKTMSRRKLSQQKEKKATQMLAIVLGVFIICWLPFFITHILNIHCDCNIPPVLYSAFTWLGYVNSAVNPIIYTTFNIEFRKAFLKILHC

## CCc1c(-c2nnc(Nc3ccccc3)o2)[nH]c2ccc(Cl)cc12 [ABM300, 5-(5-chloro-3-ethyl-1H-indol-2-yl)-N-phenyl-1,3,4-oxadiazol-2-amine]
In vitro [1]; microsomes, human liver microsomal preparations
  half-life at 3 µM: 1.82 h
In vitro [1]; human liver microsomes
  microsomal CLint at 3 µM: 12.7 ± 3.4 µL/min/mg
5HT1B
  binding to 5HT1B: did not display any significant binding
CB1R; read-out: IC50, reduction in β-arrestin recruitment
  IC50: 49.7 nM and 50 nM
CB1R; read-out: pIC50, reduction in β-arrestin recruitment (converted)
  IC50: 49 nM
Male Sprague Dawley rats
  catalepsy: did not induce catalepsy
  changes in body temperature: did not induce catalepsy, or changes in body temperature
Dopamine D2
  binding to Dopamine D2: did not display any significant binding
DATKO mice
  dysregulated hyperactivity (total distance traveled): normalized
  stereotypic movements: normalized
  vertical exploration: normalized
5HT1A
  binding to 5HT1A: did not display any significant binding
C57Bl/6J mice
  time spent in the open arms (EPM): did not affect
5HT2B
  binding to 5HT2B: did not display any significant binding
In vitro [2]; microsomes, rat liver microsomal preparations
  half-life at 3 µM: 1.83 h
In vitro [2]; rat liver microsomes
  microsomal CLint at 3 µM: 12.6 ± 2 µL/min/mg
GluN1KD mice
  exaggerated stereotypic activity: significantly reduced
  novelty-induced hyperactivity (distance traveled): decreases
  rearing behavior (vertical exploration): significantly reduced
Dopamine D1
  binding to Dopamine D1: did not display any significant binding
